Data as given in patent US9724448B2, “Materials for gastrointestinal obstruction prevention” (3-D MATRIX, LTD., priority 2013, dated 2017).
Where two headings read alike, the source gives them in different places.

Key:
Type in all cases: in vivo, human
[1] = system: artificial ulcer after ESD of early-stage esophageal cancer; assay: Stenosis prevention after endoscopic resection of esophageal cancer (artificial ulcer, 4/5 circumferential spread)
Experimental: Testing was performed on a subject having an ulcer (lesion) after an endoscopic resection of esophageal cancer. […] Endoscopic submucosal dissection was performed, which created an ulcer. […] A ⅘ circumferential spread may cause stenosis in the absence of applying a peptide solution to form a hydrogel. After confirming that there was no hemorrhaging in the artificial ulcer surface after an endoscopic resection, a catheter was passed through an endoscope, and a peptide solution such as PuraMatrix™ peptide hydrogel by 3-D Matrix, LTD. (2.5%, suitable dose (1 mL per 1 cm^2)) in a syringe was coated evenly over the ulcer surface. […] On the first week after surgery, an endoscope is used to review the area. At this time, as with the initial round, the peptide solution is coated evenly over the ulcer surface. For past cases, an endoscope was used to perform a third and fourth review of the area, in the fourth and eighth weeks, respectively, after surgery that induced stenosis, to judge the effectiveness of the peptide solution coating. […] The endoscope passage is possible in stenosis direction.

[2] = system: ESD-induced ulcer (esophageal, gastric, colorectal ESD)
Experimental: Testing was performed in human subjects in order to determine the ability of disclosed peptides to prevent gastrointestinal obstruction. Subjects who underwent esophageal, gastric, and colorectal endoscopic submucosal dissection (ESD) by nine endoscopists participated in the testing. Subjects receiving antithrombotic therapy were included in the study, but such medications were no longer being administered prior to the procedures. Cases with perforation and coagulopathy (international normalized ratio (INR)>3) despite anticoaculation management after heparin bridge therapy (HBT) were excluded. […] After the ESD procedure, a self-assembling peptide was administered to a target area in the subject. […] For every 1 cm^2 of tumor, 1 mL of self-assembling peptide RADA16, in the form of PuraMatrix™ peptide hydrogel by 3-D Matrix, LTD. (2.5 w/v percent) was applied to the ESD-induced ulcer using a catheter immediately after the procedure. A single dose proton pump inhibitor was administered in gastric ESD cases for 8 weeks beginning the morning of the procedure. Gastric ulcer stages were evaluated by endoscopy as active, healing or scarring at 1, 4, and 8 weeks after ESDs, and application of the self-assembling peptide. The primary endpoint was the rate of post-ESD bleeding. The secondary endpoints include the transitional rate to healing and scarring stages of gastric ESD-induced ulcers. Of the 117 subjects recruited, 114 patients with 124 lesions (esophagus 18; stomach 42; colorectum 64) were enrolled for outcome analysis and […] were excluded due to perforations and […].

[3] = system: gastric ESD-induced ulcers; assay: Gastric ulcer stage by endoscopy (active, healing, scarring) after ESD and peptide application
Experimental: After the ESD procedure, a self-assembling peptide was administered to a target area in the subject. […] For every 1 cm^2 of tumor, 1 mL of self-assembling peptide RADA16, in the form of PuraMatrix™ peptide hydrogel by 3-D Matrix, LTD. (2.5 w/v percent) was applied to the ESD-induced ulcer using a catheter immediately after the procedure. A single dose proton pump inhibitor was administered in gastric ESD cases for 8 weeks beginning the morning of the procedure. Gastric ulcer stages were evaluated by endoscopy as active, healing or scarring at 1, 4, and 8 weeks after ESDs, and application of the self-assembling peptide. The primary endpoint was the rate of post-ESD bleeding. The secondary endpoints include the transitional rate to healing and scarring stages of gastric ESD-induced ulcers.

Arg-Ala-Asp-Ala-Arg-Ala-Asp-Ala-Arg-Ala-Asp-Ala-Arg-Ala-Asp-Ala [PuraMatrix]
endoscope passage in stenosis direction ([1]; 4 weeks after surgery): possible | ulcer state by endoscope ([1]; 4 weeks after surgery, 2.5%, 1 mL per 1 cm^2, coated at surgery and at first week): scarring | endoscope passage in stenosis direction ([1]; 8 weeks after surgery): possible | side effects of the endoscopic resection (delayed hemorrhaging, perforations) ([1]; one subject, esophageal ESD): no delayed hemorrhaging or perforations | rate of post-ESD bleeding ([2]; all lesions (2/124), 2.5 w/v percent, 1 mL per 1 cm^2, by catheter immediately after ESD): 1.6% | rate of post-ESD bleeding ([2]; colorectum (1/64; 0.02% to 1.6%)): 1.6% | rate of post-ESD bleeding ([2]; esophagus): 0% | adverse effects related with the use of the self-assembling peptide ([2]; in vivo): no adverse effects | rate of post-ESD bleeding ([2]; stomach (1/43; 95% confidence interval 0.04% to 12.3%)): 2.4% | Transitional rate to healing stage ([3]; at 1 week after ESD, with proton pump inhibitor): 98% | scarring stage at follow up endoscopy ([3]; at 4 weeks after ESD): 21% | scarring stage at follow up endoscopy ([3]; at 8 weeks after ESD): 97%
